# Results: patent US8119638B2, “Compositions and uses of ET743 for treating cancer” (Pharma Mar, S.A., priority 2007, dated 2012)
# “Also recorded” adds a separate entry of the source. Where two headings read alike, the source gives them in different places.
# Columns and labels:
# [1] = tested on: advanced/metastatic soft tissue sarcoma (STS) and gastrointestinal stromal tumor (GIST); experiment: Example 1: trials with 24 h iv continuous infusion every 3 or 4 weeks in STS and GIST patients; format: in vivo, human; parameters: tolerability of treatment / safety/toxicities observed: dose or concentration left out as unconfirmed; conditions: for evaluable patients with stable disease or minor responses: after 2 cycles of therapy
# sc B 16 tumor = sc B 16 tumor model in male rats, dexamethasone pre-treatment plus ET743; conditions: Day 14, q2dx5, iv; for Vol. (tumor volume): preliminary results
# Method: The sc B 16 tumor model in male rats was used to compare dexamethasone pre-treated (3 mg/kg total dose; −15 min.), ET743 (90 μg/kg TD) animals to ET alone on a q2dx5, iv, schedule.
# [2] = tested on: advanced and/or metastatic cancers refractory to previous treatments; conditions: cited from earlier work
# [3] = tested on: advanced/metastatic breast cancer; experiment: Example 2: trial with 24 h iv continuous infusion every 3 weeks in pretreated breast cancer patients; format: in vivo, human
# Method: Data was analyzed from a trial with 24 h iv continues infusion of ET 743 every 3 weeks on 20 pretreated advanced/metastatic breast cancer patients, at a dose level of 1500 μg/m^2.
# all presenting measurable disease and progressing at study entry age 33 to 64 years (median 50 yrs)
# performance status 0-1 (ECOG criteria)
# […] number of involved organs: 2 (range 1-6)
# [4] = tested on: advanced/metastatic soft tissue sarcoma; experiment: Example 3: trial with 24 h iv continuous infusion every 3 weeks in pretreated sarcoma patients; format: in vivo, human
# Method: Data was analyzed from a trial with 24 h iv continues infusion of ET 743 every 3 weeks on 20 pretreated advanced/metastatic soft tissue sarcoma patients, with all except two patients being treated at a dose level of 1500 μg/m^2
# 35 Soft tissue sarcoma (STS)
# 22 patients had bulky disease at study entry, with 56% of disease progression under prior regime
# age 16 to 71 years (median 45 yrs)
# performance status 0 (0-2) (ECOG criteria)
# […] number of prior chemotherapy treatments 2 (1-7)
# Most patients had received as prior chemotherapy treatments Anthracyclines and alkylators
# [5] = tested on: advanced and/or metastatic cancers refractory to previous treatments; experiment: Clinical trials using the method of the invention: plasma levels and objective responses; format: in vivo, human
# Method: The administration is performed in cycles, in the preferred application method, an intravenous infusion of ET734 is given to the patients the first week of each cycle, the patients are allowed to recover for the remainder of the cycle. The preferred duration of each cycle is of either 3 or 4 weeks; multiple cycles can be given as needed. The drug may also be administered each of the first days of each cycle. Dose delays and/or dose reductions and schedule adjustments are performed as needed depending on individual patient tolerance of treatments, in particular does reductions are recommended for patients with higher than normal serum levels of liver transaminases or alkaline phosphatase, or bilirubin.
# Definitions for patient responses are adopted from WHO Common Toxicity Criteria and the responses determined following standard medical practice in the field.
# [6] = for recommended dose level (RD): patients
# From the text: The method consists of administration of drug by intravenous infusion over a period of 72 hrs or less at the recommended dose level (RD) with or without combination with other therapeutic agents.
# The Recommended Dose (RD) is the highest dose which can be safely administered to a patient producing tolerable, manageable and reversible toxicity according to the Common Toxicity Criteria established by the National Cancer Institute (USA), with no more than 2 out of 6 patients presenting any dose limiting toxicities (DLT). Guidelines for cancer therapy frequently call for administration of chemotherapeutic agents at the highest safe dose at which toxicity is manageable in order to achieve maximum efficacy (DeVita, V. T. Jr., Hellman, S, and Rosenberg, S. A., Cancer: Principles and Practice of Oncology, 3rd ed., 1989, Lipincott, Philadelphia).
# [7] = tested on: advanced/metastatic soft tissue sarcoma; experiment: Example 3: trial with 24 h iv continuous infusion every 3 weeks in pretreated sarcoma patients; format: in vivo, human; conditions: 34 evaluable patients
# [8] = tested on: xenografts of breast cancer, non-small cell lung, melanoma and ovarian cancer; conditions: cited from earlier work
# [9] = 24 h iv continuous infusion every 3 or 4 weeks
# [10] = 56 cycles administered, 1500 μg/m^2 24 h infusion every 3 weeks
structure (smiles),measurement,setting,value
"C[C@@H]1C[C@H]2[C@@H]3CCC4=CC(=O)C=C[C@]4(C)[C@@]3(F)[C@@H](O)C[C@]2(C)[C@@]1(O)C(=O)CO [DEX, dexamethasone]",nausea,[1]; dexamethasone as a prophylactic anti emetic with ET 743 24 h infusion,essentially eliminated
same,BW (body weight),sc B 16 tumor,217 grams
same,Vol. (tumor volume),sc B 16 tumor,"17,252 mm^3"
"COc1cc2c(cc1O)CCN[C@]21CS[C@@H]2c3c(OC(C)=O)c(C)c4c(c3[C@H](COC1=O)N1[C@@H]2[C@H]2c3c(cc(C)c(OC)c3O)C[C@@H]([C@@H]1O)N2C)OCO4 [ET743, ecteinascidin 743]",patient response (case reported in June 98),"[2]; breast cancer, dose level of 1800 microgram m2",breast cancer response
same,patient response (previously reported case),"[2]; melanoma patient, 1 hr infusion",response in a melanoma patient
same,safety/toxicities observed,[1]; [9],Myelosuppression; also recorded: Temporary/asymptomatic transaminitis; also recorded: Fatigue
same,tolerability of treatment,[1]; [9],very good
same,evaluable patients with stable disease or minor responses,[1]; STS patients with prior chemotherapy treatment,4 out of 12
same,evaluable patients with stable disease or minor responses,[1]; STS patients without any prior chemotherapy treatment,6 out of 10
same,activity by histology,"[1]; liposarcoma, leiomyo sarcoma, and synovial sarcoma",preliminary evidence of activity
same,patients achieving disease stabilization,[3]; 16 evaluable patients,Six
same,partial responses (number of patients),"[3]; 16 evaluable patients, pleuropulmonary and thoracic skin involvement, no primary resistance to either pretreatment drug",Two
same,"Asthenia (grade 2/3), number reported per cycle",[3]; [10],13
same,"Asthenia (grade 2/3), reported per cycle (percent)",[3]; [10],23%
same,"Neutropenia, grade 3 or 4 toxicities reported per cycle (percent)",[3]; [10],50%
same,"Neutropenia, number of grade 3 or 4 toxicities reported per cycle",[3]; [10],25
same,"Reversible transaminitis, grade 3 or 4 toxicities reported per cycle (percent)",[3]; [10],60%
same,"Reversible transaminitis, number of grade 3 or 4 toxicities reported per cycle",[3]; [10],34
same,"Thrombocytopenia, grade 3 or 4 toxicities reported per cycle (percent)",[3]; [10],2%
same,"Thrombocytopenia, number of grade 3 or 4 toxicities reported per cycle",[3]; [10],4
same,patients with sustained decrease in CA 15-3,[3]; among the stabilized patients,two
same,"Acute, reversible transaminitis, grade 3 or 4 toxicities reported per cycle",[4]; 137 cycles administered,44%
same,"Asthenia (grade 2/3), number reported per cycle",[4]; 137 cycles administered,13
same,"Asthenia (grade 2/3), reported per cycle (percent)",[4]; 137 cycles administered,23%
same,"Thrombocytopenia, grade 3 or 4 toxicities reported per cycle",[4]; 137 cycles administered,5%
same,"febrile neutropenia, grade 3 or 4 toxicities reported per cycle",[4]; 137 cycles administered,6.5%
same,"Neutropenia, grade 3 or 4 toxicities reported per cycle","[4]; 137 cycles administered, 1500 μg/m^2 24 h infusion every 3 weeks",34%
same,responses in osteo sarcomas,[4]; osteo sarcoma patients,2 out of 3
same,objective responses,"[5]; advanced and/or metastatic cancers refractory to previous treatments: soft tissue, bone and gastrointestinal stromal sarcoma, breast cancer and melanoma",Objective responses were obtained
same,clinical marker response,[5]; ovarian cancer,positive clinical marker response
same,plasma levels,[5]; patients at RD,appropriate plasma levels were achieved
same,activity,"[5]; variety of suboptimal schedules, advanced ocular melanoma and mesothelioma",Evidence of activity
same,recommended dose level (RD),[6]; 3 hr intravenous infusions,1650 microgram per m2 body surface area
same,recommended dose level (RD),"[6]; 3 hr intravenous infusions, listed as ET-743",1650 microgram per m2 body surface
same,recommended dose level (RD),[6]; 24 hr intravenous infusions,1500 microgram per m2 of body surface area
same,dose limiting toxicities (DLTs),"[6]; human, in vivo",myelosuppression and malaise
same,"doses with too large a fraction of patients presenting DLT, too toxic for safe administration","[6]; human, in vivo",≥ 1800 microgram per m2
same,patients presenting severe dose limiting toxic responses,"[6]; human, in vivo",2 out of 4
same,therapeutic window / toxicity,"[6]; human, in vivo",positive therapeutic window with manageable toxicity
same,RD for this schedule,"[6]; intravenous infusion over 5 consecutive days, 24 hr daily",1625 microgram per m2 of body surface area
same,RD for this schedule,[6]; intravenous infusion over 72 hr,1050 microgram per m2 of body surface area
same,disease stabilizations (number),[7],11
same,duration of most disease stabilizations,[7],≥ 3 months
same,minor responses (number),[7],3
same,minor responses which became post surgical complete response,[7],one
same,partial responses (number),[7],4
same,partial responses (percent),[7],11.7%
same,partial responses which became post surgical complete response,[7],two
same,action in animal models,[8],promising action
same,Vol. (tumor volume),sc B 16 tumor,"15,243 mm^3"
